Assay results as given in patent publication US8735398B2 (Bristol-Myers Squibb Company, priority 2009, dated 2014).
pEC50: −log10 of the molar value. Where two headings read alike, the source gives them in different places.

System: HCV 1b genotype
Experiment: HCV replicon assay (HCV-neo replicon cells, wild-type)
Format: cell-based, Hepatitis C virus
Conditions: HCV 1b genotype replicon
Outline: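 Inhibition was tested in replicon-bearing cells, both wild-type HCV-neo and lines with NS5A resistance substitutions, using the O'Boyle et al. 2005 replicon method or luciferase-reporter formats.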

[1] = Hepatitis C virus, class symbol, read-out: EC50 Range against HCV 1b
[2] = Hepatitis C virus, class symbols, read-out: EC50 Range against HCV 1b
[3] = class symbols, read-out: EC50 Range against HCV 1b
[4] = Hepatitis C virus, read-out: EC50 1b

| Compound | pEC50 [2] | other results |
| --- | --- | --- |
| C[C@H](NC(=O)[C@](C)(O)c1ccccc1)C(=O)Nc1ccc(-c2nnc(-c3ccc(NC(=O)[C@H](C)NC(=O)[C@](C)(O)c4ccccc4)cc3)o2)cc1 [RK-31, (2R,2′R)-N,N′-(1,3,4-oxadiazole-2,5-diylbis(4,1-phenyleneimino((2S)-1-oxo-1,2-propanediyl)))bis(2-hydroxy-2-phenylpropanamide)] | – | pEC50 [1]: 6.00 to 7.00 |
| COc1cccc2c(C(=O)N3CCC[C@H]3C(=O)Nc3ccc(-c4nnc(-c5ccc(NC(=O)[C@@H]6CCCN6C(=O)c6nc(Cl)cc7c(OC)cccc67)cc5)o4)cc3)nc(Cl)cc12 [RK-32, (2S,2′S)-N,N′-(1,3,4-oxadiazole-2,5-diyldi-4,1-phenylene)bis(1-((3-chloro-5-methoxy-1-isoquinolinyl)carbonyl)-2-pyrrolidinecarboxamide)] | – | pEC50 [1]: 6.00 to 7.00 |
| COc1cccc2c(C(=O)N[C@@H](C)C(=O)Nc3ccc(-c4nnc(-c5ccc(NC(=O)[C@H](C)NC(=O)c6nc(Cl)cc7c(OC)cccc67)cc5)o4)cc3)nc(Cl)cc12 [RK-33, N,N′-(1,3,4-oxadiazole-2,5-diylbis(4,1-phenyleneimino((2S)-1-oxo-1,2-propanediyl)))bis(3-chloro-5-methoxy-1-isoquinolinecarboxamide)] | 6.00 to 7.00 | – |
| C[C@H](NC(=O)[C@@H]1CCCO1)C(=O)Nc1ccc(-c2nnc(-c3ccc(NC(=O)[C@H](C)NC(=O)[C@@H]4CCCO4)cc3)o2)cc1 [RK-34, (2S,2′S)-N,N′-(1,3,4-oxadiazole-2,5-diylbis(4,1-phenyleneimino((2S)-1-oxo-1,2-propanediyl)))ditetrahydro-2-furancarboxamide] | – | pEC50 [3]: 5.00 to 6.00 |
| C[C@H](NC(=O)[C@H]1CCCO1)C(=O)Nc1ccc(-c2nnc(-c3ccc(NC(=O)[C@H](C)NC(=O)[C@H]4CCCO4)cc3)o2)cc1 [RK-35, (2R,2′R)-N,N′-(1,3,4-oxadiazole-2,5-diylbis(4,1-phenyleneimino((2S)-1-oxo-1,2-propanediyl)))ditetrahydro-2-furancarboxamide] | – | pEC50 [3]: 5.00 to 6.00 |
| C[C@H](NC(=O)c1nc(Cl)cc2ccccc12)C(=O)Nc1ccc(-c2nnc(-c3ccc(NC(=O)[C@H](C)NC(=O)c4nc(Cl)cc5ccccc45)cc3)o2)cc1 [RK-36, N,N′-(1,3,4-oxadiazole-2,5-diylbis(4,1-phenyleneimino((2S)-1-oxo-1,2-propanediyl)))bis(3-chloro-1-isoquinolinecarboxamide)] | 5.00 to 6.00 | pEC50 [4]: 6.00 |
| C[C@H](NC(=O)c1cc(Cl)ccn1)C(=O)Nc1ccc(-c2nnc(-c3ccc(NC(=O)[C@H](C)NC(=O)c4cc(Cl)ccn4)cc3)o2)cc1 [RK-37, N,N′-(1,3,4-oxadiazole-2,5-diylbis(4,1-phenyleneimino((2S)-1-oxo-1,2-propanediyl)))bis(4-chloro-2-pyridinecarboxamide)] | 5.00 to 6.00 | – |
| C[C@H](NC(=O)[C@H](c1ccccc1)N(C)C)C(=O)Nc1ccc(-c2nnc(-c3ccc(NC(=O)[C@H](C)NC(=O)[C@H](c4ccccc4)N(C)C)cc3)o2)cc1 [RK-38, (2S,2′S)-N,N′-(1,3,4-oxadiazole-2,5-diyldi-4,1-phenylene)bis(2-(((2S)-2-(dimethylamino)-2-phenylacetyl)amino)propanamide)] | > 8.34 | pEC50 [4]: > 8.30 |
| CN(C)[C@H](C(=O)N1CCC[C@H]1C(=O)Nc1ccc(-c2nnc(-c3ccc(NC(=O)[C@@H]4CCCN4C(=O)[C@H](c4ccccc4)N(C)C)cc3)o2)cc1)c1ccccc1 [RK-39, (2S,2′S)-N,N′-(1,3,4-oxadiazole-2,5-diyldi-4,1-phenylene)bis(1-((2S)-2-(dimethylamino)-2-phenylacetyl)-2-pyrrolidinecarboxamide)] | > 8.34 | pEC50 [4]: > 8.30 |
| COc1cc(C(=O)N2CCC[C@H]2C(=O)Nc2ccc(-c3nnc(-c4ccc(NC(=O)[C@@H]5CCCN5C(=O)c5cc(Cl)nc(OC)c5)cc4)o3)cc2)cc(Cl)n1 [RK-40, (2S,2′S)-N,N′-(1,3,4-oxadiazole-2,5-diyldi-4,1-phenylene)bis(1-(2-chloro-6-methoxyisonicotinoyl)-2-pyrrolidinecarboxamide)] | 5.00 to 6.00 | – |
| COc1cc(C(=O)N[C@@H](C)C(=O)Nc2ccc(-c3nnc(-c4ccc(NC(=O)[C@H](C)NC(=O)c5cc(Cl)nc(OC)c5)cc4)o3)cc2)cc(Cl)n1 [RK-41, N,N′-(1,3,4-oxadiazole-2,5-diylbis(4,1-phenyleneimino((2S)-1-oxo-1,2-propanediyl)))bis(2-chloro-6-methoxyisonicotinamide)] | 5.00 to 6.00 | – |
| Cn1cc(C(=O)N2CCC[C@H]2C(=O)Nc2ccc(-c3nnc(-c4ccc(NC(=O)[C@@H]5CCCN5C(=O)c5cn(C)c6ccccc56)cc4)o3)cc2)c2ccccc21 [RK-42, (2S,2′S)-N,N′-(1,3,4-oxadiazole-2,5-diyldi-4,1-phenylene)bis(1-((1-methyl-1H-indol-3-yl)carbonyl)-2-pyrrolidinecarboxamide)] | 5.00 to 6.00 | – |
| O=C(Nc1ccc(-c2cnc(-c3ccc(NC(=O)[C@@H]4CCCN4C(=O)c4cccs4)cc3)o2)cc1)[C@@H]1CCCN1C(=O)c1cccs1 [XY-1, (2S,2′S)-N,N′-(1,3-oxazole-2,5-diyldi-4,1-phenylene)bis(1-(2-thienylcarbonyl)-2-pyrrolidinecarboxamide)] | 6.00 to 7.00 | – |
| N#CC1(C(=O)N2CCC[C@H]2C(=O)Nc2ccc(-c3cnc(-c4ccc(NC(=O)[C@@H]5CCCN5C(=O)C5(C#N)CC5)cc4)o3)cc2)CC1 [XY-2, (2S,2′S)-N,N′-(1,3-oxazole-2,5-diyldi-4,1-phenylene)bis(1-((1-cyanocyclopropyl)carbonyl)-2-pyrrolidinecarboxamide)] | 6.00 to 7.00 | – |
| COc1cccc(CC(=O)N2CCC[C@H]2C(=O)Nc2ccc(-c3cnc(-c4ccc(NC(=O)[C@@H]5CCCN5C(=O)Cc5cccc(OC)c5)cc4)o3)cc2)c1 [XY-3, (2S,2′S)-N,N′-(1,3-oxazole-2,5-diyldi-4,1-phenylene)bis(1-((3-methoxyphenyl)acetyl)-2-pyrrolidinecarboxamide)] | 6.00 to 7.00 | pEC50 [4]: 6.49 |
| O=C(Nc1ccc(-c2cnc(-c3ccc(NC(=O)[C@@H]4CCCN4C(=O)c4cccnc4)cc3)o2)cc1)[C@@H]1CCCN1C(=O)c1cccnc1 [XY-4, (2S,2′S)-N,N′-(1,3-oxazole-2,5-diyldi-4,1-phenylene)bis(1-(3-pyridinylcarbonyl)-2-pyrrolidinecarboxamide)] | 6.00 to 7.00 | – |
| CN(C)CC(=O)N1CCC[C@H]1C(=O)Nc1ccc(-c2cnc(-c3ccc(NC(=O)[C@@H]4CCCN4C(=O)CN(C)C)cc3)o2)cc1 [XY-5, (2S,2′S)-N,N′-(1,3-oxazole-2,5-diyldi-4,1-phenylene)bis(1-((dimethylamino)acetyl)-2-pyrrolidinecarboxamide)] | 5.00 to 6.00 | – |
| O=C(Nc1ccc(-c2cnc(-c3ccc(NC(=O)[C@@H]4CCCN4C(=O)c4ccccn4)cc3)o2)cc1)[C@@H]1CCCN1C(=O)c1ccccn1 [XY-6, (2S,2′S)-N,N′-(1,3-oxazole-2,5-diyldi-4,1-phenylene)bis(1-(2-pyridinylcarbonyl)-2-pyrrolidinecarboxamide)] | 5.00 to 6.00 | – |
| O=C(Nc1ccc(-c2cnc(-c3ccc(NC(=O)[C@@H]4CCCN4C(=O)c4cc(F)cc(F)c4)cc3)o2)cc1)[C@@H]1CCCN1C(=O)c1cc(F)cc(F)c1 [XY-7, (2S,2′S)-N,N′-(1,3-oxazole-2,5-diyldi-4,1-phenylene)bis(1-(3,5-difluorobenzoyl)-2-pyrrolidinecarboxamide)] | 6.00 to 7.00 | – |
| COCCOCC(=O)N1CCC[C@H]1C(=O)Nc1ccc(-c2cnc(-c3ccc(NC(=O)[C@@H]4CCCN4C(=O)COCCOC)cc3)o2)cc1 [XY-8, (2S,2′S)-N,N′-(1,3-oxazole-2,5-diyldi-4,1-phenylene)bis(1-((2-methoxyethoxy)acetyl)-2-pyrrolidinecarboxamide)] | 5.00 to 6.00 | – |
| CCCC(C)C(=O)N1CCC[C@H]1C(=O)Nc1ccc(-c2cnc(-c3ccc(NC(=O)[C@@H]4CCCN4C(=O)C(C)CCC)cc3)o2)cc1 (stereo partly drawn) [XY-9, (2S,2′S)-N,N′-(1,3-oxazole-2,5-diyldi-4,1-phenylene)bis(1-(2-methylpentanoyl)-2-pyrrolidinecarboxamide)] | 6.00 to 7.00 | – |
| O=C(Nc1ccc(-c2cnc(-c3ccc(NC(=O)[C@@H]4CCCN4C(=O)c4ccccc4F)cc3)o2)cc1)[C@@H]1CCCN1C(=O)c1ccccc1F [XY-10, (2S,2′S)-N,N′-(1,3-oxazole-2,5-diyldi-4,1-phenylene)bis(1-(2-fluorobenzoyl)-2-pyrrolidinecarboxamide)] | 6.00 to 7.00 | – |
| COc1ccc2[nH]cc(CC(=O)N3CCC[C@H]3C(=O)Nc3ccc(-c4cnc(-c5ccc(NC(=O)[C@@H]6CCCN6C(=O)Cc6c[nH]c7ccc(OC)cc67)cc5)o4)cc3)c2c1 [XY-11, (2S,2′S)-N,N′-(1,3-oxazole-2,5-diyldi-4,1-phenylene)bis(1-((5-methoxy-1H-indol-3-yl)acetyl)-2-pyrrolidinecarboxamide)] | 6.00 to 7.00 | – |
| CC(Oc1cccc(Cl)c1)C(=O)N1CCC[C@H]1C(=O)Nc1ccc(-c2cnc(-c3ccc(NC(=O)[C@@H]4CCCN4C(=O)C(C)Oc4cccc(Cl)c4)cc3)o2)cc1 (stereo partly drawn) [XY-12, (2S,2′S)-N,N′-(1,3-oxazole-2,5-diyldi-4,1-phenylene)bis(1-(2-(3-chlorophenoxy)propanoyl)-2-pyrrolidinecarboxamide)] | 6.00 to 7.00 | pEC50 [4]: 6.66 |
| O=C(O)CCC(=O)N1CCC[C@H]1C(=O)Nc1ccc(-c2cnc(-c3ccc(NC(=O)[C@@H]4CCCN4C(=O)CCC(=O)O)cc3)o2)cc1 [XY-13, 4,4′-(1,3-oxazole-2,5-diylbis(4,1-phenylenecarbamoyl(2S)-2,1-pyrrolidinediyl))bis(4-oxobutanoic acid)] | – | pEC50 [3]: 5.00 to 6.00; pEC50 (read-out: EC50 1b): 5.34 |
| O=C(Nc1ccc(-c2cnc(-c3ccc(NC(=O)[C@@H]4CCCN4C(=O)Cc4cnc[nH]4)cc3)o2)cc1)[C@@H]1CCCN1C(=O)Cc1c[nH]cn1 [XY-14, (2S)-1-(1H-imidazol-4-ylacetyl)-N-(4-(2-(4-((((2S)-1-(1H-imidazol-5-ylacetyl)-2-pyrrolidinyl)carbonyl)amino)phenyl)-1,3-oxazol-5-yl)phenyl)-2-pyrrolidinecarboxamide (non-preferred name)] | – | pEC50 [3]: 5.00 to 6.00 |
